# Columns and labels:
# [1] = tested on: transplanted tumor of human non-small cell lung cancer cell H1299; conditions: H1299; 30 mg/kg i.g. 30 days
# Experimental: (§1) Then cell concentration was adjusted to 1×10^7/ml with matrigel, then each nude mouse was inoculated subcutaneously with 0.2 ml of cells at its right armpit and recorded as the first day of inoculation. When the tumor grows to be greater than or equal to 100 mm^3, the mice were randomly divided into 11 groups with 6 mice in each group: isovaleryl spiramycin I groups with doses of 25, 50 and 100 mg/kg, isovaleryl spiramycin II groups with doses of 25, 50 and 100 mg/kg, and isovaleryl spiramycin III groups with doses of 25, 50 and 100 mg/kg. Each group was continuously administered intragastrically for 30 days with a dose of 20 ml/kg. The mice were sacrificed the next day after drug withdrawal and the indicators were tested. The long diameter and short diameter of the tumor, and the body weight of each mouse were recorded every 3 days from drug administration to nude mouse sacrifice.
# (§2) The body weight of the nude mice and the long diameter (a) and short diameter (b) of the transplanted tumor were measured every 3 days, and the tumor volume (v), relative tumor volume (RTV) and relative tumor proliferation rate (T/C) are calculated respectively according to the following formulas, wherein V=a×b^2/2; RTV=V/V0 (V0 is the tumor volume before administration, V is the tumor volume before sacrifice), and T/C (%)=treatment group RTV/model control group RTV×100%.
# (§3) Each mouse was weighed and sacrificed. After the tumor was completely stripped off from the body of the mouse, the non-tumor tissues such as blood stains and fat were removed to weigh the tumor and calculate the tumor growth inhibition rate. The average tumor weight of each group of mice is used as an indicator of efficacy. Tumor growth inhibition rate (%)=(1−the average tumor weight of the treatment group/the average tumor weight of the model group)×100%.
# [2] = tested on: transplanted tumor of human breast cancer cell MDA-MB-231; experiment: MDA-MB-231 transplanted tumor in nude mice; conditions: MDA-MB-231; 30 mg/kg i.g. 30 days
# Experimental: as §1, with “group: a model group, a cyclophosphamide group,” for “group:”
# as §2, §3
# [3] = tested on: transplanted tumor of human prostate cancer cell PC3; experiment: PC3 transplanted tumor in nude mice; conditions: PC3; 30 mg/kg i.g. 30 days
# Experimental: as §1, with “group: a model group, a cyclophosphamide group,” for “group:”
# as §2, §3
# [4] = tested on: transplanted tumor of human bladder cancer cell T-24; experiment: T-24 transplanted tumor in nude mice; conditions: dose 30 mg/kg
# Experimental: as §1, §2, §3
smiles,measurement,setting,value
"O=P1(N(CCCl)CCCl)NCCCO1 (centres unmarked) [Cyclophosphamide, cyclophosphamide, reference compound]",Body Weight (d 1),[1],21.83 ± 0.33 g
same,Body Weight (d 30),[1],23.72 ± 2.41 g
same,Inhibition Rate (tumor growth inhibition rate),[1],78.00%
same,Relative Tumor Proliferation Rate (T/C),[1],22.72%
same,Relative Tumor Volume (RTV),[1],2.91 ± 0.95
same,Tumor Volume (d 1),[1],135.46 ± 16.48 mm3
same,Tumor Volume (d 30),[1],384.21 ± 106.99 mm3
same,Tumor Weight,[1],0.38 ± 0.08 g
same,Body Weight (d 1),[2],21.65 ± 1.50 g
same,Body Weight (d 30),[2],19.26 ± 1.49 g
same,Inhibition Rate (tumor growth inhibition rate),[2],70.54%
same,Relative Tumor Proliferation Rate (T/C),[2],37.73%
same,Relative Tumor Volume (RTV),[2],5.89 ± 2.84
same,Tumor Volume (d 1),[2],116.90 ± 7.18 mm3
same,Tumor Volume (d 30),[2],691.84 ± 337.21 mm3
same,Tumor Weight,[2],0.38 ± 0.27 g
same,Body Weight (d 1),[3],21.57 ± 0.75 g
same,Body Weight (d 30),[3],16.43 ± 0.78 g
same,Inhibition Rate (tumor growth inhibition rate),[3],70.03%
same,Relative Tumor Proliferation Rate (T/C),[3],29.33%
same,Relative Tumor Volume (RTV),[3],5.73 ± 2.23
same,Tumor Volume (d 1),[3],155.36 ± 34.96 mm3
same,Tumor Volume (d 30),[3],834.50 ± 135.35 mm3
same,Tumor Weight,[3],0.56 ± 0.17 g
same,Inhibition Rate (%),[4],73.04%
same,Relative Tumor Proliferation Rate (T/C),[4],21.60%
same,Relative Tumor Volume (RTV),[4],2.85 ± 0.50
same,Tumor Weight,[4],0.51 ± 0.12 g
same,Body Weight (g) (d1),[4]; d 1,19.53 ± 0.61 g
same,Tumor Volume (mm3) (d 1),[4]; d 1,136.87 ± 19.82 mm3
same,Body Weight (g) (d30),[4]; d 30,27.28 ± 1.43 g
same,Tumor Volume (mm3) (d30),[4]; d 30,389.34 ± 82.07 mm3

# Reference: US20200163984A1, “USE OF ISOVALERYL SPIRAMYCIN I, II AND/OR III IN MANUFACTURING MEDICAMENT FOR TREATING AND/OR PREVENTING TUMOR, AND MEDICAMENT” (SHENYANG FUYANG PHARMACEUTICAL TECHNOLOGY CO., LTD., priority 2017, published 2020)
